Results reported in DBAASP.
Converted amounts (≈) assume the structure as drawn.

Assays:
Experiment in all cases: ≥ marks a high value that may be exact or a test limit, other limits are often not marked, values filed in µg/mL are converted to µM
[1] = test system: Streptococcus mutans
[2] = test system: Staphylococcus aureus ATCC 25923
[3] = test system: Pseudomonas aeruginosa CMCCB 10104
[4] = test system: Escherichia coli ATCC 25922
[5] = test system: Candida albicans ATCC 2002
[6] = test system: Staphylococcus aureus ATCC 43300
[7] = test system: Pseudomonas aeruginosa PAO1

MIC [1] [µM]	MIC [2] [µM]	MIC [3] [µM]	MIC [4] [µM]	MIC [5] [µM]	Structure (SMILES)	other results
21 (≈ 32 µg/mL)					CC(C)C[C@H](NC(=O)[C@H](Cc1c[nH]c2ccccc12)NC(=O)[C@H](CCC(N)=O)NC(=O)[C@H](CC(C)C)NC(=O)[C@H](Cc1ccccc1)NC(=O)[C@@H](NC(=O)[C@H](CCCCN)NC(=O)[C@@H](N)Cc1ccccc1)[C@@H](C)O)C(=O)N[C@@H](Cc1cnc[nH]1)C(=O)N[C@@H](CCCN=C(N)N)C(=O)N[C@@H](Cc1ccccc1)C(N)=O [FKTFLQWLHRF]	
	1.79 (≈ 8.6 µg/mL)	1.79 (≈ 8.6 µg/mL)	1.79 (≈ 8.6 µg/mL)	1.79 (≈ 8.6 µg/mL)	CC[C@H](C)[C@H](NC(=O)CN)C(=O)N[C@@H](Cc1ccccc1)C(=O)N[C@@H](CO)C(=O)N[C@@H](CCCCN)C(=O)N[C@H](C(=O)N[C@@H](CO)C(=O)NCC(=O)N[C@@H](CCCCN)C(=O)N[C@@H](C)C(=O)N[C@H](C(=O)N[C@@H](CCCCN)C(=O)N[C@@H](CC(N)=O)C(=O)N[C@@H](CC(C)C)C(=O)N[C@@H](Cc1ccccc1)C(=O)N[C@H](C(=O)N[C@@H](CCCCN)C(=O)NCC(=O)N[C@@H](C)C(=O)N[C@@H](CCC(=O)O)C(=O)N[C@@H](CC(N)=O)C(=O)N[C@H](C(=O)NCC(=O)N[C@@H](CCCCN)C(=O)N[C@@H](Cc1cnc[nH]1)C(=O)N[C@H](C(=O)NCC(=O)N[C@@H](CCSC)C(=O)N[C@@H](CC(=O)O)C(=O)N[C@H](C(=O)N[C@H](C(=O)N[C@@H](CCCN=C(N)N)C(=O)N[C@H](C(=O)NCC(=O)N[C@H](C(=O)N[C@@H](CC(=O)O)C(=O)N[C@H](C(=O)N[C@H](C(=O)NCC(=O)N[C@H]1CSSC[C@@H](C(=O)O)NC(=O)[C@H](CCC(=O)O)NC(=O)CNC(=O)[C@H](CCCCN)NC(=O)[C@H]([C@@H](C)CC)NC(=O)[C@H](CCCCN)NC1=O)C(C)C)C(C)C)[C@@H](C)CC)[C@@H](C)O)C(C)C)C(C)C)C(C)C)C(C)C)[C@@H](C)CC)[C@@H](C)CC)[C@@H](C)CC [GIFSKISGKAIKNLFIKGAENVGKHVGMDVVRTGIDVVGCKIKGEC]	
	10.2 (≈ 20.4 µg/mL)	10.2 (≈ 20.4 µg/mL)	5.12 (≈ 10.2 µg/mL)	5.12 (≈ 10.2 µg/mL)	CC[C@H](C)[C@H](NC(=O)CN)C(=O)N[C@@H](CC(C)C)C(=O)N[C@@H](CO)C(=O)NCC(=O)N[C@@H](CC(C)C)C(=O)N[C@@H](CC(C)C)C(=O)NCC(=O)N[C@H](C(=O)NCC(=O)N[C@@H](CCCCN)C(=O)N[C@@H](CCSC)C(=O)N[C@@H](CC(C)C)C(=O)N[C@H](C(=O)N[C@H]1CSSC[C@@H](C(=O)O)NC(=O)[C@H](CC(C)C)NC(=O)CNC(=O)[C@H](CO)NC(=O)[C@H](CC(C)C)NC(=O)CNC1=O)C(C)C)C(C)C [GILSGLLGVGKMLVCGLSGLC]	
	1.86 (≈ 6.3 µg/mL)	3.72 (≈ 12.6 µg/mL)	1.86 (≈ 6.3 µg/mL)	0.944 (≈ 3.2 µg/mL)	CC[C@H](C)[C@H](NC(=O)[C@H](C)NC(=O)[C@H](CCSC)NC(=O)[C@H](CC(N)=O)NC(=O)[C@H](CCCCN)NC(=O)[C@H](Cc1ccccc1)NC(=O)[C@@H](NC(=O)[C@H](CC(=O)O)NC(=O)[C@H](CC(C)C)NC(=O)[C@H](CC(C)C)NC(=O)CN)[C@@H](C)O)C(=O)N[C@@H](CC(N)=O)C(=O)N[C@@H](C)C(=O)N[C@@H](C)C(=O)N[C@@H](Cc1cnc[nH]1)C(=O)NCC(=O)N[C@@H](C)C(=O)NCC(=O)N[C@H](C(=O)N[C@@H](CO)C(=O)N[C@H](C(=O)N[C@@H](CC(C)C)C(=O)N[C@@H](CC(N)=O)C(=O)N[C@@H](C)C(=O)N[C@@H](CC(C)C)C(=O)N[C@@H](CO)C(=O)N[C@H]1CSSC[C@@H](C(=O)O)NC(=O)[C@H]([C@@H](C)O)NC(=O)[C@H](CCCCN)NC(=O)[C@H](CCCCN)NC(=O)[C@H](CC(C)C)NC(=O)[C@H](CCCCN)NC1=O)C(C)C)C(C)C [GLLDTFKNMAINAAHGAGVSVLNALSCKLKKTC]	
	1.96 (≈ 6.6 µg/mL)	1.96 (≈ 6.6 µg/mL)	3.92 (≈ 13.2 µg/mL)	1.96 (≈ 6.6 µg/mL)	CSCC[C@H](NC(=O)[C@H](CC(N)=O)NC(=O)[C@H](CCCCN)NC(=O)[C@H](Cc1ccccc1)NC(=O)[C@@H](NC(=O)[C@H](CC(=O)O)NC(=O)[C@H](CC(C)C)NC(=O)[C@H](CC(C)C)NC(=O)CN)[C@@H](C)O)C(=O)N[C@@H](C)C(=O)N[C@@H](CC(C)C)C(=O)N[C@@H](CC(N)=O)C(=O)N[C@@H](C)C(=O)N[C@@H](C)C(=O)N[C@@H](CCCCN)C(=O)N[C@@H](CO)C(=O)N[C@@H](C)C(=O)NCC(=O)N[C@H](C(=O)N[C@@H](CO)C(=O)N[C@H](C(=O)N[C@@H](CC(C)C)C(=O)N[C@@H](CC(N)=O)C(=O)N[C@@H](C)C(=O)N[C@@H](CC(C)C)C(=O)N[C@@H](CO)C(=O)N[C@H]1CSSC[C@@H](C(=O)O)NC(=O)[C@H]([C@@H](C)O)NC(=O)[C@H](CCCCN)NC(=O)[C@H](CO)NC(=O)[C@H](CC(C)C)NC(=O)[C@H](CCCCN)NC1=O)C(C)C)C(C)C [GLLDTFKNMALNAAKSAGVSVLNALSCKLSKTC]	
4.52 (≈ 16 µg/mL)					CC[C@H](C)[C@H](N)C(=O)N[C@@H](CCCCN)C(=O)N[C@@H](CCC(N)=O)C(=O)N[C@@H](CC(C)C)C(=O)N[C@@H](CC(C)C)C(=O)N[C@@H](Cc1cnc[nH]1)C(=O)N[C@@H](Cc1ccccc1)C(=O)N[C@@H](Cc1ccccc1)C(=O)N[C@@H](CCC(N)=O)C(=O)N[C@@H](CCCN=C(N)N)C(=O)N[C@@H](Cc1ccccc1)C(=O)NCC(=O)NCC(=O)NCC(=O)N[C@@H](CCCN=C(N)N)C(=O)N[C@@H](Cc1c[nH]c2ccccc12)C(=O)N[C@@H](CCCN=C(N)N)C(=O)N[C@@H](CCCN=C(N)N)C(=O)N[C@@H](CC(C)C)C(=O)N[C@@H](CC(C)C)C(=O)N[C@@H](CCCCN)C(=O)N[C@@H](CCCCN)C(=O)N[C@@H](CC(C)C)C(=O)N[C@@H](Cc1cnc[nH]1)C(=O)N[C@@H](Cc1cnc[nH]1)C(=O)N[C@@H](CC(C)C)C(=O)N[C@@H](CC(C)C)C(=O)N[C@@H](Cc1cnc[nH]1)C(N)=O [IKQLLHFFQRFGGGRWRRLLKKLHHLLH]	
30.8 (≈ 44.7 µg/mL)					CC[C@H](C)[C@H](N)C(=O)N[C@@H](CCCCN)C(=O)N[C@H](C(=O)N[C@@H](CC(C)C)C(=O)N[C@@H](CC(C)C)C(=O)N[C@@H](Cc1cnc[nH]1)C(=O)N[C@@H](Cc1ccccc1)C(=O)N[C@@H](Cc1ccccc1)C(=O)N[C@@H](CCC(N)=O)C(=O)N[C@@H](CCCN=C(N)N)C(=O)N[C@@H](Cc1ccccc1)C(N)=O)[C@@H](C)O [IKTLLHFFQRF]	
≥ 93.4					CC(C)C[C@H](NC(=O)[C@@H](NC(=O)[C@H](CCCN=C(N)N)NC(=O)[C@H](CCCCN)NC(=O)[C@@H](NC(=O)[C@H](CCCCN)NC(=O)[C@H](CCC(N)=O)NC(=O)[C@H](C)NC(=O)[C@H](CC(C)C)NC(=O)[C@@H](N)CCCCN)C(C)C)C(C)C)C(=O)N[C@@H](CCCN=C(N)N)C(=O)O [KLAQKVKRVLR]	
	> 152	≥ 152	> 152	≥ 152	CC(C)C[C@H](NC(=O)[C@H](Cc1c[nH]c2ccccc12)NC(=O)[C@@H]1CCCN1C(=O)[C@@H]1CCCN1C(=O)[C@H](CC(C)C)NC(=O)[C@@H](N)CC(C)C)C(=O)N[C@@H](CCCN=C(N)N)C(=O)N1CCC[C@H]1C(=O)N[C@@H](CCCN=C(N)N)C(=O)N[C@@H](CC(N)=O)C(=O)NCC(=O)O [LLPPWLRPRNG]	
≥ 224					NCCCC[C@H](NC(=O)[C@H](Cc1c[nH]c2ccccc12)NC(=O)[C@H](Cc1c[nH]c2ccccc12)NC(=O)[C@H](CCCCN)NC(=O)[C@H](CCCN=C(N)N)NC(=O)[C@H](CCCN=C(N)N)NC(=O)[C@@H](N)CCCN=C(N)N)C(=O)O [RRRKWWK]	
13.3 (≈ 16 µg/mL)					NC(N)=NCCC[C@H](NC(=O)[C@H](CCCN=C(N)N)NC(=O)[C@H](CCCN=C(N)N)NC(=O)[C@@H](N)CCCN=C(N)N)C(=O)N[C@@H](Cc1c[nH]c2ccccc12)C(=O)N[C@@H](Cc1c[nH]c2ccccc12)C(=O)N[C@@H](Cc1c[nH]c2ccccc12)C(=O)O [RRRRWWW]	MIC [6]: 125 µM (≈ 150 µg/mL); MIC [7]: 125 µM (≈ 150 µg/mL)
5.81 (≈ 16 µg/mL)					C[C@H](NC(=O)[C@H](CO)NC(=O)[C@H](C)NC(=O)[C@H](Cc1ccccc1)NC(=O)[C@H](Cc1c[nH]c2ccccc12)NC(=O)[C@H](CCCN=C(N)N)NC(=O)[C@H](Cc1c[nH]c2ccccc12)NC(=O)[C@H](CCCN=C(N)N)NC(=O)[C@H](Cc1c[nH]c2ccccc12)NC(=O)[C@@H](N)CCCN=C(N)N)C(=O)N[C@@H](CO)C(=O)N[C@@H](C)C(=O)N[C@@H](CCCN=C(N)N)C(=O)N[C@@H](Cc1c[nH]c2ccccc12)C(=O)N[C@@H](CCCN=C(N)N)C(=O)N[C@@H](Cc1c[nH]c2ccccc12)C(=O)N[C@@H](CCCN=C(N)N)C(=O)N[C@@H](Cc1c[nH]c2ccccc12)C(=O)N[C@@H](Cc1ccccc1)C(N)=O [RWRWRWFASASARWRWRWF]	
≥ 95.8					CC[C@H](C)[C@H](NC(=O)[C@H](CC(N)=O)NC(=O)[C@H](CCCCN)NC(=O)[C@H](CC(C)C)NC(=O)[C@H](CO)NC(=O)[C@H](CCC(N)=O)NC(=O)[C@H](CC(C)C)NC(=O)[C@@H](NC(=O)[C@@H](N)[C@@H](C)O)[C@@H](C)CC)C(=O)N[C@@H](Cc1ccccc1)C(=O)N[C@@H](CCCCN)C(=O)O [TILQSLKNIFK]	
	> 72.8	18.2 (≈ 30 µg/mL)	18.2 (≈ 30 µg/mL)	18.2 (≈ 30 µg/mL)	CC[C@H](C)[C@@H]1NC(=O)[C@@H](NC(=O)[C@H](CCCN=C(N)N)NC(=O)[C@H](CO)NC(=O)[C@@H](N)[C@@H](C)O)CSSC[C@@H](C(=O)N[C@@H](CO)C(=O)O)NC(=O)[C@H](CCCCN)NC(=O)[C@H](CCCCN)NC(=O)[C@H](CCCN=C(N)N)NC(=O)[C@H](CCCN=C(N)N)NC(=O)[C@H](Cc2ccc(O)cc2)NC(=O)[C@H](Cc2ccccc2)NC1=O [TSRCIFYRRKKCS]	
